Legend:
contraction by histamine = experiment: Inhibition of histamine-induced contraction of isolated guinea pig trachea (Test Example 1); assay type: cell-based; conditions: guinea pig trachea contracted with 5.4x10^-4M histamine, cumulative addition every 6 minutes; for IC20: concentration for 20% inhibition; for IC50: concentration for 50% inhibition
Experimental: (§1) A guinea pig was sacrificed by knocking at the occipital region and then bleeding from the femoral artery. The trachea was removed, incised in the longitudinal direction at the opposite side of the smooth muscle and sectioned into sections of about 1 to 1.5 cm along the cartilage. Seven or eight sections were linked by a silk thread in chains. The sample was stretched by 1.0 g of tension in 15 ml of Tyrode's solution at 37°C under flow of the mixed gas of 95% O2 and 5% CO2. After resting for 60 to 90 minutes for stabilization, the sample was contracted with 5.4x10^-4M histamine and when the construction reached the constant value, the test compounds were accumulately added every 6 minutes, and the change in tension was recorded on a recorder (T-626DS, Nippon Denshi Kagaku, Japan) through an isometric transducer (1T-1, LABOX, Fukukensha, Japan).
Rate of inhibition by the test compounds of the contraction by histamine was expressed in percent, and IC20 and IC50 values were calculated as the concentration of the test compounds for 20% and 50% […], respectively.

[1] = test system: increase in the airway resistance by histamine; experiment: Inhibition of histamine-induced increase in airway resistance, test compound i.v. (Test Example 2); assay type: in vivo; conditions: one minute before histamine (3 µg/kg), anesthetized guinea pig
Experimental: A guinea pig was intraperitoneally anesthetized with 1.0-1.2 g/kg urethane (Katayama Kagaku, Japan). The test animal was cannulated through the common carotid […] and the trachea, and then pancuronium bromide was intravenously administered at 0.3 mg/kg to stop the spontaneous respiration of the test animal. The animal was artificially respired using a respirater for a small animal (SN-480-7, Shinano Seisakusho, Japan) and bronchospasm transducer (7020, Ugo Basile). The overflowing air at 6-9 ml(air)/time, 60 times/minute and loading pressure of 10 cm H2O was recorded on a recorder (056-1001, Hitachi Seisakusho, Japan) through the bronchospasm transducer. Histamine (3 µg/kg) was administered several times at 30 minutes intervals, and when the increase in the airway resistance by histamine was established, the test compounds were intravenously administered one minute before the administration of histamine (3 µg/kg) to induce airway constriction. The difference of airway resistance before and after the administration of histamine was taken as 100% and activity of test compounds was shown in terms of percent inhibition of the increase due to histamine.

[2] = test system: contraction by leukotriene D4; experiment: Inhibition of leukotriene D4-induced contraction of isolated guinea pig trachea (Test Example 3); assay type: cell-based; conditions: guinea pig trachea contracted with 1x10^-8M leukotriene D4; for IC20: concentration for 20% inhibition; for IC50: concentration for 50% inhibition
Experimental: as §1, with “1x10^-8M leukotriene D4” for “5.4x10^-4M histamine”, “Densi” for “Denshi”
Rate of inhibition by the test compounds of the contraction by leukotriene D4 was expressed in percent, and IC20 and IC50 values were calculated as the concentration of the test compounds for 20% and 50% […], respectively.

[3] = test system: platelet activating factor (PAF); experiment: Inhibition of PAF-induced increase in airway resistance, test compound i.v. (Test Example 4); assay type: in vivo, guinea pig; conditions: dose 10µg/kg i.v. one minute before PAF (50 ng/kg i.v.), n=2
Experimental: A guinea pig was intraperitoneally anesthetized with 1.2 g/kg urethane (Katayama Kagaku, Japan). The test animal was cannulated through the common carotid […] and the trachea, and then pancuronium bromide was intravenously administered at 0.3 mg/kg to stop the spontaneous respiration of the test animal. The animal was artificially respired using a respirater for a small animal (SN-480-7, Shinano Seisakusho, Japan) and bronchospasm transducer (7020, Ugo Basile). The overflowing air at 7-10 ml(air)/time, 60 times/minute and loading pressure of 10 cm H2O was recorded on a recorder (056-1001, Hitachi Seisakusho, Japan) through the bronchospasm transducer. When the base line was stabilized, platelet activating factor (PAF) (50 ng/kg) was intravenously administered. The increase in the airway resistance was determined taking the value at the complete occlusion of trachea as the maximum contraction (100%). The test compounds were intravenously administered one minute before the administration of PAF. The difference of airway resistance before and after the administration of 50 ng/kg PAF was taken as 100% and activity of test compound was shown in terms of percent inhibition of the increase due to PAF.

conjunctive = experiment: Histamine-induced conjunctival inflammation and dye leakage, ophthalmic administration (Test Example 6); assay type: in vivo, Female Wistar rats; design: Weight of Conjunctive (Mean±S.D.): dose or concentration left out as unconfirmed; conditions: for Weight of Conjunctive (Mean±S.D.): 3 minutes before Evans Blue and subconjunctival histamine, 30 minutes, control 41.5±2.0; for Dye (µg/part): dye extracted from conjunctive, absorption at 625 nm, control 8.26±0.52
Experimental: Female Wistar rats (weight: 90g) were used as the test animals. The animals received the test compounds and, 3 minutes after, 0.5ml of 0.5% Ebans Blue/physiological saline was administered through the caudal vein. Then, immediately after, 0.05ml of 0.1% histamine hydrochloride/physiological saline was injected subconjunctivally at an upper eyelid. After 30 minutes, the animals were sacrificed by vertebral cervial dislocation and the scalp was peeled away towards the eyelid. Part of skin and conjunctive showing inflammation was cut off and weighed. Then, said conjunctive was minced and extracted overnight with 4ml […] at 40°C with shaking. The dye in the conjunctive was assayed by measuring absorption of the extract at 625 nm. […] Control animals received the same amount of the physiological saline.

PCA reaction = experiment: Passive cutaneous anaphylaxis (PCA) reaction in sensitized rats (Test Example 7); assay type: in vivo, Male Crj Wistar rats; conditions: Dose 10 µg/kg intravenously, n=16
Experimental: Male Crj Wistar rats (7 weeks old) were passively sensitized by injecting 50µl of diluted rat anti-EA (egg albumin) antiserum at the dorsal skin.
After 48 hours, 1 ml of a mixture consisting of equal amount of 1% EA (egg albumin) as the antigen in physiological saline and 1% Evans Blue in physiological saline was injected in the caudal vein to elicit the PCA reaction. After 30 minutes, the animals were killed by deep anesthetization and dorsal skin was ablated. The major and minor axes of reacted part, i.e. pigment-leaking site were measured and the average value of them was taken as the diameter, from which the area was calculated.
Then said site was punched and amount of the pigment was measured by the following method.
The punched site was dipped in 1ml of 1N aqueous potassium hydroxide and allowed to stand overnight at 37°C. Then 9ml of a mixed solution of 0.6N H3PO4: acetone (5:13) was added and the mixture was centrifuged. The supernatant was assayed for absorption at 620 nm using an absorption spectrophotometer. The amount of the pigment was determined by calibration curve which was obtained using the known amounts of the pigment.
The test compound was dissolved in the physiological saline and intravenously administered. The control animals intravenously received the physiological saline (5ml/kg) alone.

IC50 (contraction by histamine; Cavia porcellus, 0.1 h) | IC50 ([2]; Cavia porcellus) | Compound | IC20 (contraction by histamine; Cavia porcellus, 0.1 h) | IC20 ([2]; Cavia porcellus) | Weight of Conjunctive (Mean±S.D.) (conjunctive) | Dye (µg/part) (conjunctive) | other results
2000 nM | 1000 nM | CCCC(F)(F)C(=O)CCC[C@H]1[C@H](O)CC(=O)[C@@H]1C/C=C\CCCC(=O)O [compound 2] | 300 nM | 300 nM | – | – | Inhibition (%) ([1]; dose 10 µg/kg): 78%
2000 nM | 600 nM | CCCC(F)(F)C(=O)CCC[C@H]1[C@H](O)CC(=O)[C@@H]1C/C=C\CCCC(=O)OC(C)C [compound 3] | 500 nM | 180 nM | – | – | –
– | 25000 nM | CCCC(F)(F)C(=O)CCC[C@H]1[C@H](C)CC(=O)[C@@H]1C/C=C\CCCC(=O)OC [compound 4] | 10000 nM | 7000 nM | – | – | –
1200 nM | 500 nM | CCCC(F)(F)C(=O)CCC[C@H]1[C@H](O)CC(=O)[C@@H]1C/C=C\CCCC(=O)OC [compound 1] | 300 nM | 160 nM | 36.3 ± 2.1 mg | 7.13±0.65 µg/part | Inhibition (%) ([1]; dose 10 µg/kg): 92%

The remaining lines, values behind:

Compound | IC50 (contraction by histamine; Cavia porcellus, 0.1 h) | IC50 ([2]; Cavia porcellus) | IC20 (contraction by histamine; Cavia porcellus, 0.1 h) | IC20 ([2]; Cavia porcellus) | Weight of Conjunctive (Mean±S.D.) (conjunctive) | Dye (µg/part) (conjunctive) | other results
CCCC(F)(F)C(=O)CCC[C@@H]1[C@@H](C/C=C\CCCC(=O)OC)[C@@H](O)C[C@H]1O [compound 7] | – | 20000 nM | 17000 nM | 4000 nM | – | – | –
CCCC(F)(F)C(=O)CCCC1C(=O)CC(O)C1C/C=C\CCCC(=O)OC (stereo not drawn) [Test Compound 8, 13,14-dihydro-15-dehydroxy-16-oxo-17,17-difluoro-PGD2 methyl ester] | – | – | – | – | 32.7 ± 1.8 mg | – | IC20 (contraction by histamine): 100 nM; IC50 (contraction by histamine): 350 nM; Inhibition (%) ([1]; dose 5 µg/kg): 93%; IC20 [2]: 40 nM; IC50 [2]: 120 nM; Increase in Resistance (%,mean) ([3]; complete occlusion of trachea = 100%, control 74.5): 11.5%; Inhibition (%) [3]: 84.6%; Amount(µg/site) (PCA reaction; amount of pigment in punched site, absorption at 620 nm, control 104.9±45.4): 38.0±15.9 µg/site; Area(mm^2) (PCA reaction; area of pigment-leaking site, 30 minutes after antigen, control 56.9±19.4): 33.7±7.5 mm^2
CCCC(F)(F)C(=O)CCC[C@H]1C(=O)C[C@H](O)[C@@H]1C/C=C\CCCC(=O)OC [compound 8] | – | – | – | – | 38.5 ± 2.0 mg | 7.69±0.71 µg/part | –
CCCC(F)(F)C(=O)CCC[C@H]1C=CC(=O)[C@@H]1C/C=C\CCCC(=O)OC [compound 9] | – | – | – | – | 38.9 ± 1.8 mg | 7.49±0.67 µg/part | –
